# Source: patent US20180042931A1 (Bayer Pharma Aktiengesellschaft, priority 2015, published 2018)
# pIC50: −log10 of the molar value.
# How the values were obtained:
# [1] = test system: FOP control vector (randomized, non-functional sequence instead of functional TCF elements) in HCT116 cells; assay: Control reporter assay, HCT116 cells stably transfected with FOP control vector (HCT116-FOP), luciferase readout; format: cell-based; conditions: Homo sapiens, HCT-116, 36 hours incubation, luciferase expression, dilution series up to 50 μM
# Procedure: In a parallel approach, HCT116 cells were cotransfected with the FOP control vector and pcDNA3. The FOP vector is identical to the TOP construct, but it contains instead of functional TCF elements a randomized, non-functional sequence. For this transfection a stable transfected cell line was generated as well.
# (§1) In preparation of the assay, the two cell lines were plated 24 hours before at 10000 cells per well of a 384 micro titre plate (MTP) in 30 μL growth medium. Selective inhibitory activity for small molecules on the mutated Wnt pathway was determined after parallel incubation of both (TOP and FOP) HCT116 reporter cell lines with a compound dilution series from 50 μM to 15 nM in steps of 3.16-fold dilutions in CAFTY buffer (130 mM NaCl, 5 mM KCl, 20 mM HEPES, 1 mM MgCl2, 5 mM NaHCO3, pH 7.4) containing 2 mM Ca^2+ and 0.01% BSA. The compounds were thereby serially prediluted in 100% DMSO and thereafter in addition 50 fold into the CAFTY compound dilution buffer (described above). From this dilution 10 μL were added to the cells in 30 μL growth medium and incubated for 36 hours at 37° C. and 5% CO2. Thereafter luciferase assay buffer (1:1 mixture of luciferase substrate buffer (20 mM Tricine, 2.67 mM MgSO4, 0.1 mM EDTA, 4 mM DTT, 270 μM Coenzyme A, 470 μM Luciferin, 530 μM ATP, ph adjusted to pH 7.8 with a sufficient volume of 5M NaOH) and Triton buffer (30 mL Triton X-100, 115 mL glycerol, 308 mg Dithiothreitol, 4.45 g Na2HPO4.2H2O, 3.03 g TRIS HCl, ad 1I H2O, pH 7.8) was added as equal volume to the compound solution on the cells to determine luciferase expression as a measure of Wnt signaling activity in a luminometer.
# [2] = test system: constitutive active colorectal cancer cell (CRC) Wnt pathway; assay: Cellular reporter assay, HCT116 cells stably transfected with Super TopFlash vector (HCT116-TOP), luciferase readout; format: cell-based; conditions: Homo sapiens, HCT-116, 36 hours incubation, luciferase expression, average or median values
# Procedure: In order to discover and characterize small molecules which inhibit the constitutive active colorectal cancer cell (CRC) Wnt pathway, a cellular reporter assay was employed. The corresponding assay cell was generated by transfection of the colorectal cancer cell line HCT116 (ATCC, #CCL-247) with the Super TopFlash vector (Morin, Science 275, 1997, 1787-1790; Molenaar et al., Cell 86 (3), 1996, 391-399). The HCT116 cell line is cultivated at 37° C. and 5% CO2 in DMEM/F-12 (Life Technologies, #11320-074), supplemented with 2 mM glutamine, 20 mM HEPES, 1.4 mM pyruvate, 0.15% Na-bicarbonate and 10% foetal bovine serum (GIBCO, #10270), this cancer cell line is pathophysiological relevant since it carries a deletion of position S45 in the β-catenin gene, leading to constitutive active Wnt signaling. Stable transfectants were generated by cotransfection with pcDNA3 and selection of stable transfected cells with 1 mg/mL G418.
# as §1
SMILES,pIC50 [1],pIC50 [2]
"O=C(CN1CCOCC1)Nc1cc(C(=O)Nc2ccc(-c3cn[nH]c3)cc2)ccc1OC(F)(F)F [Example 6, 3-[(morpholin-4-ylacetyl)amino]-N-[4-(1H-pyrazol-4-yl)phenyl]-4-(trifluoromethoxy)benzamide]",≤ 4.30,6.74
"Nc1ccc(-c2ccc(NC(=O)c3ccc(OC(F)(F)F)c(NC(=O)CN4CCOCC4)c3)cc2)cn1 [Example 7, N-[4-(6-aminopyridin-3-yl)phenyl]-3-[(morpholin-4-ylacetyl)amino]-4-(trifluoromethoxy)benzamide]",≤ 4.30,7.64
"O=C(CN1CCOCC1)Nc1cc(C(=O)Nc2ccc(-c3cncnc3)cc2)ccc1OC(F)(F)F [Example 8, 3-[(morpholin-4-ylacetyl)amino]-N-[4-(pyrimidin-5-yl)phenyl]-4-(trifluoromethoxy)benzamide]",≤ 4.30,7.18
"COc1ncc(-c2ccc(NC(=O)c3ccc(OC(F)(F)F)c(NC(=O)CN4CCOCC4)c3)cc2)cn1 [Example 9, N-[4-(2-methoxypyrimidin-5-yl)phenyl]-3-[(morpholin-4-ylacetyl)amino]-4-(trifluoromethoxy)-benzamide]",≤ 4.30,6.39
"CN(C)c1ncc(-c2ccc(NC(=O)c3ccc(OC(F)(F)F)c(NC(=O)CN4CCOCC4)c3)cc2)cn1 [Example 10, N-{4-[2-(dimethylamino)pyrimidin-5-yl]phenyl}-3-[(morpholin-4-ylacetyl)amino]-4-(trifluoromethoxy)benzamide]",≤ 4.30,7.22
"O=C(CN1CCOCC1)Nc1cc(C(=O)Nc2ccc(-c3cnc(N4CCC4)nc3)cc2)ccc1OC(F)(F)F [Example 11, N-{4-[2-(azetidin-1-yl)pyrimidin-5-yl]phenyl}-3-[(morpholin-4-ylacetyl)amino]-4-(trifluoromethoxy)benzamide]",≤ 4.30,6.70
"Cc1ccc(-c2ccc(NC(=O)c3ccc(OC(F)(F)F)c(NC(=O)CN4CCOCC4)c3)cc2)cn1 [Example 13, N-[4-(6-methylpyridin-3-yl)phenyl]-3-[(morpholin-4-ylacetyl)amino]-4-(trifluoromethoxy)benzamide]",≤ 4.30,6.25
"O=C(CN1CCOCC1)Nc1cc(C(=O)Nc2ccc(-c3ccc(CO)nc3)cc2)ccc1OC(F)(F)F [Example 14, N-{4-[6-(hydroxymethyl)pyridin-3-yl]phenyl}-3-[(morpholin-4-ylacetyl)amino]-4-(trifluoromethoxy)benzamide]",≤ 4.30,6.42
"COc1ccc(-c2ccc(NC(=O)c3ccc(OC(F)(F)F)c(NC(=O)CN4CCOCC4)c3)cc2)cn1 [Example 15, N-[4-(6-methoxypyridin-3-yl)phenyl]-3-[(morpholin-4-ylacetyl)amino]-4-(trifluoromethoxy)benzamide]",≤ 4.30,6.26
"COc1ncccc1-c1ccc(NC(=O)c2ccc(OC(F)(F)F)c(NC(=O)CN3CCOCC3)c2)cc1 [Example 17, N-[4-(2-methoxypyridin-3-yl)phenyl]-3-[(morpholin-4-ylacetyl)amino]-4-(trifluoromethoxy)-benzamide]",≤ 4.30,6.55
"O=C(CN1CCOCC1)Nc1cc(C(=O)Nc2ccc(-c3cccnc3)cc2)ccc1OC(F)(F)F [Example 18, 3-[(morpholin-4-ylacetyl)amino]-N-[4-(pyridin-3-yl)phenyl]-4-(trifluoromethoxy)benzamide]",≤ 4.30,7.10
"Nc1ncc(-c2ccc(NC(=O)c3ccc(OC(F)(F)F)c(NC(=O)C4(N5CCOCC5)CC4)c3)cc2)cn1 [Example 19, N-[4-(2-aminopyrimidin-5-yl)phenyl]-3-({[1-(morpholin-4-yl)cyclopropyl]carbonyl}amino)-4-(trifluoromethoxy)benzamide]",≤ 4.30,8.49
"O=C(Nc1ccc(-c2cccnc2F)cc1)c1ccc(OC(F)(F)F)c(NC(=O)C2(N3CCOCC3)CC2)c1 [Example 20, N-[4-(2-fluoropyridin-3-yl)phenyl]-3-({[1-(morpholin-4-yl)cyclopropyl]carbonyl}amino)-4-(trifluoromethoxy)benzamide]",≤ 4.30,8.50
"O=C(Nc1ccc(-c2cccnc2F)cc1)c1ccc(Cl)c(NC(=O)C2(N3CCOCC3)CC2)c1 [Example 22, 4-chloro-N-[4-(2-fluoropyridin-3-yl)phenyl]-3-({[1-(morpholin-4-yl)cyclopropyl]carbonyl}amino)-benzamide]",≤ 4.30,6.85
"Nc1ncc(-c2ccc(NC(=O)c3ccc(Cl)c(NC(=O)C4(N5CCOCC5)CC4)c3)cc2)cn1 [Example 23, N-[4-(2-aminopyrimidin-5-yl)phenyl]-4-chloro-3-({[1-(morpholin-4-yl)cyclopropyl]carbonyl}amino)-benzamide]",≤ 4.30,7.58
"Cc1ccc(C(=O)Nc2ccc(-c3cccnc3)cc2)cc1NC(=O)C1(N2CCOCC2)CC1 [Example 24, 4-methyl-3-({[1-(morpholin-4-yl)cyclopropyl]carbonyl}amino)-N-[4-(pyridin-3-yl)phenyl]benzamide]",≤ 4.30,7.47
"Cc1ccc(C(=O)Nc2ccc(-c3cccnc3F)cc2)cc1NC(=O)C1(N2CCOCC2)CC1 [Example 25, N-[4-(2-fluoropyridin-3-yl)phenyl]-4-methyl-3-({[1-(morpholin-4-yl)cyclopropyl]carbonyl}-amino)benzamide]",≤ 4.30,7.68

# Further lines, results first:
pIC50 [1],pIC50 [2],SMILES
≤ 4.30,6.20,"COc1ccc(NC(=O)c2ccc(-c3ccc(N)nc3)cc2)cc1NC(=O)CN1CCOCC1 [Example 1, 4-(6-aminopyridin-3-yl)-N-{4-methoxy-3-[(morpholin-4-ylacetyl)amino]phenyl}benzamide]"
≤ 4.30,5.51,"COc1ccc(NC(=O)c2ccc(-c3cncnc3)cc2)cc1NC(=O)CN1CCOCC1 [Example 2, N-{4-methoxy-3-[(morpholin-4-ylacetyl)amino]phenyl}-4-(pyrimidin-5-yl)benzamide]"
≤ 4.30,7.31,"Nc1ncc(-c2ccc(NC(=O)c3ccc(OC(F)(F)F)c(NC(=O)CN4CCOCC4)c3)cc2)cn1 [Example 3, N-[4-(2-aminopyrimidin-5-yl)phenyl]-3-[(morpholin-4-ylacetyl)amino]-4-(trifluoromethoxy)-benzamide]"
≤ 4.30,7.83,"O=C(CN1CCOCC1)Nc1cc(C(=O)Nc2ccc(-c3cccnc3F)cc2)ccc1OC(F)(F)F [Example 4, N-[4-(2-fluoropyridin-3-yl)phenyl]-3-[(morpholin-4-ylacetyl)amino]-4-(trifluoromethoxy)benzamide]"
≤ 4.30,6.80,"Cn1cc(-c2ccc(NC(=O)c3ccc(OC(F)(F)F)c(NC(=O)CN4CCOCC4)c3)cc2)cn1 [Example 5, N-[4-(1-methyl-1H-pyrazol-4-yl)phenyl]-3-[(morpholin-4-ylacetyl)amino]-4-(trifluoromethoxy)-benzamide]"
4.49,5.58,"O=C(CN1CCOCC1)Nc1cc(C(=O)Nc2ccc(-c3cnc(C(F)(F)F)nc3)cc2)ccc1OC(F)(F)F [Example 12, 3-[(morpholin-4-ylacetyl)amino]-4-(trifluoromethoxy)-N-{4-[2-(trifluoromethyl)pyrimidin-5-yl]phenyl}benzamide]"
4.38,6.93,"Cc1ncccc1-c1ccc(NC(=O)c2ccc(OC(F)(F)F)c(NC(=O)CN3CCOCC3)c2)cc1 [Example 16, N-[4-(2-methylpyridin-3-yl)phenyl]-3-[(morpholin-4-ylacetyl)amino]-4-(trifluoromethoxy)benzamide]"
4.33,8.34,"Nc1ccc(-c2ccc(NC(=O)c3ccc(OC(F)(F)F)c(NC(=O)C4(N5CCOCC5)CC4)c3)cc2)cn1 [Example 21, N-[4-(6-aminopyridin-3-yl)phenyl]-3-({[1-(morpholin-4-yl)cyclopropyl]carbonyl}amino)-4-(trifluoromethoxy)benzamide]"
